Assay results: patent publication US20040258676A1, “Stimulation of the activity of an isoform of lysyl oxidase for combating against some pathologies due to an incomplete, absent or disorganized elastogenesis” (COLETICA, priority 2003, published 2004)

What was measured:
elastin mRNA = assay: Verification of positive controls: stimulation of the synthesis of elastin mRNA by quantitative RT-PCR; type: cell-based, human; details: TGF-β at 1 ng/ml
Experimental: The TGF-β at 1 ng/ml and the IL-1α at 50 pg/ml were tested beforehand and the stimulation of the synthesis of elastin mRNA induced by these two cytokines at these concentrations was verified by an analysis of the mRNAs, e.g. by quantitative RT-PCR (×10 for TGF-β and x6 for IL-1 alpha). After the time of placing the actives in contact with the cells, e.g. 24 hours, the media are removed and the cells are preserved e.g. by dry freezing at −80° C. after a rinsing in phosphate buffer pH 7.4. The total RNAs are extracted e.g. with the aid of an extraction kit of 96 wells on silica columns and were determined on a 96-well spectrophotometer at 260 nm (purity indicator: protein determination at 280 nm). […]
The actives were tested at 1% (v/v) on human scar tissue skin fibroblasts (surgical recovery of hypertropic scar after caesarean) in premature passage (lower than 5 passages). […] The TGF-β at 1 ng/ml and the IL-1α at 50 pg/ml were tested beforehand and the stimulation of the synthesis of elastin mRNA induced by these two cytokines at these concentrations was verified by an analysis of the mRNAs, e.g. by quantitative RT-PCR (x10 for TGF-β and x6 for IL-1 alpha). […] The total RNAs are extracted e.g. with the aid of an extraction kit of 96 wells on silica columns and were determined on a 96-well spectrophotometer at 260 nm (purity indicator: protein determination at 280 nm). […]

elastin (Eln) mRNA = assay: Screening of actives by qualitative RT-PCR, elastin mRNA in aged adult fibroblasts (Example 9); type: cell-based; details: actives at 1% (v/v), 24 hours, fibroblasts of normal human skin of aged adults; compared to actin and to negative control
Experimental: (§1) The actives were tested at 1% (v/v) on fibroblasts of normal human skin (originating from healthy <<aged >> adults). The culture was carried out, e.g. in a monolayer on 24-well culture plates, in a defined medium without serum (Fibroblast Basal Medium, Promocell, Germany). The cells were sown, e.g. at 40,000 per cm^2. At the confluence, the cells are placed in contact with the actives advantageously for 24 hours. In parallel, a non-treated control (medium alone) and three positive controls (TGF-β at 1 ng/ml, IL-1α at 50 pg/ml and Phytokine® (Coletica, France) at 2%(v/v)) are advantageously carried out, e.g. on the same culture plate. The TGF-β at 1 ng/ml and the IL-1α at 50 pg/ml were tested beforehand and the stimulation of the synthesis of elastin mRNA induced by these two cytokines at these concentrations was verified by an analysis of the mRNAs, e.g. by quantitative RT-PCR (×10 for TGF-β and x6 for IL-1 alpha). […] The total RNAs are extracted e.g. with the aid of an extraction kit of 96 wells on silica columns and were determined on a 96-well spectrophotometer at 260 nm (purity indicator: protein determination at 280 nm). […] The photographs of the gels were analyzed by image analysis and quantification of the intensity of the bands (Phoretix1D Quantifier, Non Linear Dynamics Ltd, USA). […]

LOX mRNA = assay: Screening of actives by qualitative RT-PCR, LOX mRNA in aged adult fibroblasts (Example 9); type: cell-based; details: actives at 1% (v/v), 24 hours, fibroblasts of normal human skin of aged adults; compared to actin and to negative control
Experimental: as §1

Row | Compound | stimulation of the synthesis of elastin mRNA (elastin mRNA) [x] | Eln Control multiplied by: (elastin (Eln) mRNA) | LOX Control multiplied by: (LOX mRNA)
1 | TGF-β | 10 |  | 
2 | OC[C@@H](O)[C@H](O)[C@@H](O)CO [Xylitol] |  | 0.27 | 3.10
